From US8404718B2, “Combinations of pyrazole kinase inhibitors” (Astex Therapeutics Limited, priority 2005, dated 2013)

Tests used:
Activated CDK2/CyclinA = Activated CDK2/CyclinA (Homo sapiens, UniProt P24941); experiment: Activated CDK2/CyclinA kinase inhibitory activity assay (IC50), Example 250A; format: biochemical
Procedure: Compounds of the invention were tested for kinase inhibitory activity using the following protocol.
The reaction is allowed to proceed for 2 to 4 hours before being stopped with an excess of ortho-phosphoric acid (5 μl at 2%).
γ^33P-ATP which remains unincorporated into the histone H1 is separated from phosphorylated histone H1 on a Millipore MAPH filter plate. The wells of the MAPH plate are wetted with 0.5% orthophosphoric acid, and then the results of the reaction are filtered with a Millipore vacuum filtration unit through the wells. Following filtration, the residue is washed twice with 200 μl of 0.5% orthophosphoric acid. Once the filters have dried, 20 μl of Microscint 20 scintillant is added, and then counted on a Packard Topcount for 30 seconds.

[1] = test system: human colon carcinoma cell line HCT 116; experiment: Anti-proliferative activity, Alamar Blue assay; format: cell-based; conditions: 72 hours compound incubation, read-out: IC50, inhibition of cell growth, HCT 116
Procedure: The anti-proliferative activities of the combinations of the invention, as well as the individual components of the combinations, are determined by measuring the ability of the compounds to inhibition of cell growth in a number of cell lines. Inhibition of cell growth is measured using the Alamar Blue assay (Nociari, M. M, Shalev, A., Benias, P., Russo, C. Journal of Immunological Methods 1998, 213, 157-167). The method is based on the ability of viable cells to reduce resazurin to its fluorescent product resorufin. For each proliferation assay cells are plated onto 96 well plates and allowed to recover for 16 hours prior to the addition of inhibitor compounds for a further 72 hours. At the end of the incubation period 10% (v/v) Alamar Blue is added and incubated for a further 6 hours prior to determination of fluorescent product at […]. In the case of the non-proliferating cell assay cells are maintained at confluence for 96 hour prior to the addition of inhibitor compounds for a further 72 hours. The number of viable cells is determined by Alamar Blue assay as before. All cell lines are obtained from ECACC (European Collection of cell Cultures).

| IC50 (Activated CDK2/CyclinA) | IC50 [1] | SMILES |
| --- | --- | --- |
| < 20 µM | < 20 µM | COc1ccccc1CNC(=O)c1n[nH]cc1NC(=O)c1c(F)cccc1F [Example 96] |
| < 20 µM | < 100 µM | Cc1nn(C)c(C)c1CNC(=O)c1n[nH]cc1NC(=O)c1c(F)cccc1F [Example 99] |
| < 20 µM | < 20 µM | O=C(NCC1CCCO1)c1n[nH]cc1NC(=O)c1c(F)cccc1F (centres unmarked) [Example 100] |
| < 20 µM | < 20 µM | Cc1cc(CNC(=O)c2n[nH]cc2NC(=O)c2c(F)cccc2F)no1 [Example 101] |
| < 20 µM | < 20 µM | O=C(NCc1cccnc1)c1n[nH]cc1NC(=O)c1c(F)cccc1F [Example 103] |
| < 20 µM | < 20 µM | O=C(NCc1ccncc1)c1n[nH]cc1NC(=O)c1c(F)cccc1F [Example 104] |
| < 20 µM | < 20 µM | O=C(NCc1ccco1)c1n[nH]cc1NC(=O)c1c(F)cccc1F [Example 107] |
| < 20 µM | < 100 µM | CC(NC(=O)c1n[nH]cc1NC(=O)c1c(F)cccc1F)c1ccccc1 (centres unmarked) [Example 108] |
| < 20 µM | < 20 µM | O=C(NC1CCN(CC2CC2)CC1)c1n[nH]cc1NC(=O)c1c(F)cccc1F [Example 109] |
| < 20 µM | < 20 µM | O=C(NC1CCN(c2ncccn2)CC1)c1n[nH]cc1NC(=O)c1c(F)cccc1F [Example 110] |
| < 20 µM | < 20 µM | O=C(NCC1CCNCC1)c1n[nH]cc1NC(=O)c1c(F)cccc1F [Example 111] |
| < 20 µM | < 20 µM | O=C(NC1CCN(c2ccccn2)CC1)c1n[nH]cc1NC(=O)c1c(F)cccc1F [Example 112] |
| < 20 µM | < 20 µM | CC1CCC(NC(=O)c2n[nH]cc2NC(=O)c2c(F)cccc2F)CC1 (centres unmarked) [Example 113] |
| < 20 µM | < 20 µM | O=C(NC1CCN(CC(F)(F)F)CC1)c1n[nH]cc1NC(=O)c1c(F)cccc1F [Example 114] |
| < 20 µM | < 20 µM | O=C(NC1CCN(c2cccc(Cl)n2)CC1)c1n[nH]cc1NC(=O)c1c(F)cccc1F [Example 115] |
| < 20 µM | < 20 µM | O=C(N[C@H]1CC[C@H](NC2CCOCC2)CC1)c1n[nH]cc1NC(=O)c1c(F)cccc1F [Example 116] |
| < 20 µM | < 20 µM | CN1CCN([C@H]2CC[C@H](NC(=O)c3n[nH]cc3NC(=O)c3c(F)cccc3F)CC2)CC1 [Example 117] |
| < 20 µM | < 20 µM | CN1CCN([C@H]2CC[C@@H](NC(=O)c3n[nH]cc3NC(=O)c3c(F)cccc3F)CC2)CC1 [Example 118] |
| < 20 µM | < 20 µM | O=C(NC1CCC(CO)CC1)c1n[nH]cc1NC(=O)c1c(F)cccc1F (centres unmarked) [Example 120] |
| < 20 µM | < 20 µM | O=C(NC1CCC(N2CCSCC2)CC1)c1n[nH]cc1NC(=O)c1c(F)cccc1F (centres unmarked) [Example 121] |
| < 20 µM | < 20 µM | CN(C)[C@H]1CC[C@H](NC(=O)c2n[nH]cc2NC(=O)c2c(F)cccc2F)CC1 [Example 124] |

| IC50 (Activated CDK2/CyclinA) | IC50 [1] | SMILES |
| --- | --- | --- |
| < 20 µM | < 20 µM | COCCN1CCC(NC(=O)c2n[nH]cc2NC(=O)c2c(F)cccc2F)CC1 [Example 125] |
| < 20 µM | < 20 µM | O=C(N[C@H]1CC[C@H](N2CCS(=O)(=O)CC2)CC1)c1n[nH]cc1NC(=O)c1c(F)cccc1F [Example 132] |
| < 20 µM | < 20 µM | O=C(NC1CCN(CC2CCOC2)CC1)c1n[nH]cc1NC(=O)c1c(F)cccc1F (centres unmarked) [Example 133] |
| < 20 µM | < 20 µM | CC(C)(C)OC(=O)N1CCC(NC(=O)c2n[nH]cc2NC(=O)c2c(F)cc(F)cc2F)CC1 [Example 136] |
| < 20 µM | < 20 µM | CO[C@H]1CC[C@H](NC(=O)c2n[nH]cc2NC(=O)c2c(F)cccc2F)CC1 [Example 137] |
| < 20 µM | < 20 µM | O=C1CC[C@H](NC(=O)c2n[nH]cc2NC(=O)c2c(F)cccc2F)CN1 [Example 139] |
| < 20 µM | < 20 µM | O=C(NC1CCNCC1)c1n[nH]cc1NC(=O)c1c(F)cc(F)cc1F [Example 148] |
| < 20 µM | < 20 µM | O=C(N[C@H]1CCCNC1)c1n[nH]cc1NC(=O)c1c(F)cccc1F [Example 152] |
| < 20 µM | < 20 µM | COc1ccccc1C(=O)Nc1c[nH]nc1C(=O)N[C@H]1CC[C@H](O)CC1 [Example 153] |
| < 20 µM | < 20 µM | COc1cccc(F)c1C(=O)Nc1c[nH]nc1C(=O)N[C@H]1CC[C@H](O)CC1 [Example 154] |
| < 20 µM | < 20 µM | O=C(N[C@H]1CC[C@H](O)CC1)c1n[nH]cc1NC(=O)c1c(F)cccc1Cl [Example 155] |
| < 20 µM | < 20 µM | COc1cscc1C(=O)Nc1c[nH]nc1C(=O)N[C@H]1CC[C@H](O)CC1 [Example 158] |
| < 20 µM | < 20 µM | O=C(Nc1c[nH]nc1C(=O)N[C@H]1CC[C@H](O)CC1)c1cccc2c1OCCO2 [Example 159] |
| < 20 µM | < 100 µM | O=C(Nc1c[nH]nc1C(=O)N[C@H]1CC[C@H](O)CC1)Nc1c(F)cccc1F [Example 160] |
| < 20 µM | < 20 µM | C[N+]1([O-])CCC(NC(=O)c2n[nH]cc2NC(=O)c2c(F)cccc2F)CC1 (centres unmarked) [Example 162] |
| < 20 µM | < 20 µM | NC[C@H]1CC[C@H](NC(=O)c2n[nH]cc2NC(=O)c2c(F)cccc2F)CC1 [Example 163] |
| < 20 µM | < 20 µM | CS(=O)(=O)NC[C@H]1CC[C@H](NC(=O)c2n[nH]cc2NC(=O)c2c(F)cccc2F)CC1 [Example 164] |
| < 20 µM | < 20 µM | O=C(N[C@H]1CC[C@H](N2CCOCC2)CC1)c1n[nH]cc1NC(=O)c1c(F)cccc1F [Example 167] |
| < 20 µM | < 20 µM | O=C(Nc1c[nH]nc1C(=O)NCC1CC1)c1cccc2c1OCCO2 [Example 178] |
| < 20 µM | < 20 µM | CC(C)(C)N1CCC(NC(=O)c2n[nH]cc2NC(=O)c2c(F)cccc2F)CC1 [Example 179] |
| < 20 µM | < 100 µM | O=C(Nc1c[nH]nc1C(=O)NCC1CC1)c1ccc(N2CCOCC2)cc1Cl [Example 182] |

| IC50 (Activated CDK2/CyclinA) | IC50 [1] | SMILES |
| --- | --- | --- |
| < 20 µM | – | CC(C)(C)NC(=O)Nc1c[nH]nc1C(=O)NCC1CC1 [Example 184] |
| < 20 µM | – | O=C(N[C@@H]1CCNC1)c1n[nH]cc1NC(=O)c1c(F)cccc1F [Example 185] |
| < 20 µM | < 20 µM | CN1CCC(NC(=O)c2n[nH]cc2NC(=O)c2c(F)cccc2Cl)CC1 [Example 186] |
| < 20 µM | < 20 µM | CN1CCC(NC(=O)c2n[nH]cc2NC(=O)c2c(Cl)cccc2Cl)CC1 [Example 187] |
| < 20 µM | < 20 µM | Cc1ccc(C(=O)Nc2c[nH]nc2C(=O)NC2CCN(C)CC2)cc1 [Example 189] |
| < 20 µM | < 20 µM | COc1ccccc1C(=O)Nc1c[nH]nc1C(=O)NC1CCNCC1 [Example 190] |
| < 20 µM | < 20 µM | O=C(NC1CCNCC1)c1n[nH]cc1NC(=O)c1c(Cl)cncc1Cl [Example 194] |
| < 20 µM | < 20 µM | O=C(Nc1c[nH]nc1C(=O)NC1CCNCC1)c1ccccc1OC(F)(F)F [Example 196] |
| < 20 µM | < 20 µM | CCOc1ccccc1C(=O)Nc1c[nH]nc1C(=O)NC1CCNCC1 [Example 198] |
| < 20 µM | < 20 µM | O=C(Nc1c[nH]nc1C(=O)NC1CCNCC1)c1ccccc1N1CCOCC1 [Example 199] |
| < 20 µM | < 20 µM | O=C(Nc1c[nH]nc1C(=O)NC1CCNCC1)c1ccccc1OCc1ccccc1 [Example 200] |
| < 20 µM | < 20 µM | O=C(Nc1c[nH]nc1C(=O)NC1CCNCC1)c1ccccc1Br [Example 201] |
| < 20 µM | < 20 µM | COc1cccc(F)c1C(=O)Nc1c[nH]nc1C(=O)NC1CCN(C)CC1 [Example 202] |
| < 20 µM | < 20 µM | CN1CCC(NC(=O)c2n[nH]cc2NC(=O)c2ccccc2OC(C)(C)C)CC1 [Example 203] |
| < 20 µM | < 20 µM | COc1ccc(F)cc1C(=O)Nc1c[nH]nc1C(=O)NC1CCN(C)CC1 [Example 204] |
| < 20 µM | < 20 µM | O=C(N[C@H]1CCCNC1)c1n[nH]cc1NC(=O)c1c(Cl)cccc1Cl [Example 208] |
| < 20 µM | < 20 µM | COCCN1CCC(NC(=O)c2n[nH]cc2NC(=O)c2c(Cl)cccc2Cl)CC1 [Example 209] |
| < 20 µM | – | CO[C@H]1CC[C@H](NC(=O)c2n[nH]cc2NC(=O)c2c(Cl)cccc2Cl)CC1 [Example 210] |
| < 20 µM | < 20 µM | CN1CCC(NC(=O)c2n[nH]cc2NC(=O)c2ccccc2Cl)CC1 [Example 211] |
